The text below walks through data of ChEMBL document CHEMBL5608244, “Preclinical Evaluation of Dihydropyrazole-Cored Positron Emission Tomography (PET) Ligands for Imaging of Receptor-Interacting Serine/Threonine Protein Kinase 1 (RIPK1) in the Brain” (J Med Chem, 2024).

A word on the logD: it is the decadic logarithm of the distribution of all forms, ionised or not, between an organic phase and buffer at a given pH.

Data set [1] can be described thus: Retention time of the compound by HPLC method. In kind it is physicochemical.
A short description of data set [2]: Lipophilicity, logD of compound at pH 7.4 by shake flask method. The note with it: buffer. Type of data set: physicochemical.
Data set [3] can be described thus: Drug uptake in Sprague-Dawley rat brain at 10 to 17.6 MBq, iv treated for about 1 min by PET analysis. Type of data set: ADME, organism-based. Particulars: in vivo, dose 10-17.6 MBq; call rule not given here.
Data set [4] can be described thus: Drug uptake in Sprague-Dawley rat bone at 10 to 17.6 MBq, iv treated upto 30 mins by PET analysis. In kind it is ADME, organism-based, Bone element. The note with it: in vivo, 0.5 h, dose 10-17.6 MBq.
Data set [5] is described as follows: Drug uptake in Sprague-Dawley rat brain at 10 to 17.6 MBq, iv pretreated with 1-(5-(3-fluorophenyl)-4,5-dihydro-1H-pyrazol-1-yl)-2,2-dimethylpropan-1-one followed by compound administration measured upto 30 mins by PET analysis. Type of data set: ADME, organism-based. Particulars: in vivo, 0.5 h, dose 10-17.6 MBq.
Data set [6] is described as follows: Stability in saline measured for 60 to 150 mins by reversed-phase HPLC analysis. In kind it is physicochemical. Particulars: buffer; time 60-150 min.
Data set [7] in a line: Stability in Balb/c mouse plasma measured for 60 to 150 mins by reversed-phase HPLC analysis. In kind it is ADME. The note with it: time 60-150 min.

Regarding `Cc1ccc(C2CC=NN2C(=O)C(C)(C)C)cc1F` (stereo not given), the Retention_time in data set [1] came out at 21.7 min.

In the case of `Cc1ccc(C2CC=NN2C(=O)C(C)(C)C)cc1[18F]` (stereo not given), the Retention_time in data set [1] came to 21.81 min. Also, in data set [2], the logD was found to be 2.98. Besides, the SUVmax in data set [3] is 1.4. Also, the Drug uptake result in data set [4] is reported as “Not Active”; in data set [5], “Active”.

Take `CC(C)(C)C(=O)N1N=CCC1c1cc(F)cc([18F])c1` (stereo not given): the Retention_time in data set [1] is recorded as 13.76 min. In addition, the Stability in data set [6] is on record as greater than 99%; in data set [7] it was greater than 97%. Moreover, the logD in data set [2] was found to be 2.58. In data set [3], this compound returned an SUVmax of 1.8. Also, the Drug uptake entry in data set [4] was “Not Active”; in data set [5], “Active”.

Turning to `CC(C)(C)C(=O)N1N=CCC1c1cc(F)cc(F)c1` (stereo not given), the Retention_time in data set [1] is listed as 13.66 min.

`CC(C)(C)C(=O)N1N=CCC1c1cccc(F)c1` (stereo not given) gave a Retention_time in data set [1] of 21.74 min.
